Reference: ChEMBL document CHEMBL1201862, “PubChem BioAssay data set” (2004)
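Grown in 96-well plates, cells were treated for 48 hours with each compound at five concentrations. Insufficient inhibition: endpoint recorded as highest concentration tested. At the GI50, growth is halved.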 Calls of active or inactive are those of the source. Cut-off read from the data, not from the text of the source: active = GI50 up to about 1.1 µM and inactive = higher.

How the values were obtained:
Assay in all cases: inhibition of tumour cell growth, NCI panel, 48 h
[1] = tested on: 786-0
[2] = tested on: A498
[3] = tested on: A549
[4] = tested on: ACHN
[5] = tested on: CCRF-CEM
[6] = tested on: COLO 205
[7] = tested on: DLD-1
[8] = tested on: DMS-114
[9] = tested on: DMS-273
[10] = tested on: EKVX
[11] = tested on: HCC 2998
[12] = tested on: HCT-116
[13] = tested on: HCT-15
[14] = tested on: HL-60
[15] = tested on: HOP-62
[16] = tested on: HT-29
[17] = tested on: IGROV-1
[18] = tested on: K562
[19] = tested on: KM-20L2
[20] = tested on: KM12
[21] = tested on: LOX IMVI
[22] = tested on: LXFL 529
[23] = tested on: M14
[24] = tested on: M19-MEL
[25] = tested on: MOLT-4
[26] = tested on: Malme-3M
[27] = tested on: NCI-H226
[28] = tested on: NCI-H23
[29] = tested on: NCI-H460
[30] = tested on: NCI-H522
[31] = tested on: OVCAR-3
[32] = tested on: OVCAR-4
[33] = tested on: OVCAR-5
[34] = tested on: OVCAR-8
[35] = tested on: RPMI-8226
[36] = tested on: RXF 393
[37] = tested on: SF-295
[38] = tested on: SF-539
[39] = tested on: SK-MEL-28
[40] = tested on: SK-MEL-2
[41] = tested on: SK-MEL-5
[42] = tested on: SK-OV-3
[43] = tested on: SN12C
[44] = tested on: SNB-19
[45] = tested on: SNB-75
[46] = tested on: SNB-78
[47] = tested on: SR
[48] = tested on: SW-620
[49] = tested on: TK-10
[50] = tested on: U-251
[51] = tested on: UACC-257
[52] = tested on: UACC-62
[53] = tested on: UO-31
[54] = tested on: XF498
[55] = tested on: SF-268

`COC(=O)c1ccc(/N=N/N(C)CO)cc1` was tested. Which GI50 [1] did it give?
The GI50 was 74 µM (inactive).

And the GI50 [2]?
The GI50 was 51.8 µM (inactive).

What about the GI50 [3] of the same compound?
The GI50 was > 100 µM (inactive).

And the GI50 [4]?
Its GI50 is 80.2 µM (inactive).

And the GI50 [5]?
Its GI50 is > 100 µM (inactive).

What about the GI50 [6] of the same compound?
Its GI50 is > 100 µM (inactive).

What about the GI50 [7] of the same compound?
The GI50 was 98.6 µM (inactive).

What about the GI50 [8] of the same compound?
The GI50 was > 100 µM (inactive).

What about the GI50 [9] of the same compound?
The GI50 was 63.1 µM (inactive).

What about the GI50 [10] of the same compound?
Its GI50 is > 100 µM (inactive).

And the GI50 [11]?
Its GI50 is > 100 µM (inactive).

And the GI50 [12]?
Its GI50 is > 100 µM (inactive).

What about the GI50 [13] of the same compound?
Its GI50 is > 100 µM.

What about the GI50 [14] of the same compound?
The GI50 was > 100 µM (inactive).

And the GI50 [15]?
Its GI50 is 81.8 µM (inactive).

And the GI50 [16]?
Its GI50 is > 100 µM (inactive).

And the GI50 [17]?
Its GI50 is > 100 µM (inactive).

What about the GI50 [18] of the same compound?
Its GI50 is 68.4 µM (inactive).

And the GI50 [19]?
The GI50 was > 100 µM (inactive).

And the GI50 [20]?
Its GI50 is > 100 µM (inactive).

And the GI50 [21]?
Its GI50 is > 100 µM (inactive).

What about the GI50 [22] of the same compound?
Its GI50 is 43.6 µM (inactive).

What about the GI50 [23] of the same compound?
The GI50 was 71.1 µM (inactive).

What about the GI50 [24] of the same compound?
Its GI50 is > 100 µM (inactive).

And the GI50 [25]?
The GI50 was > 100 µM (inactive).

What about the GI50 [26] of the same compound?
The GI50 was > 100 µM (inactive).

And the GI50 [27]?
The GI50 was > 100 µM (inactive).

And the GI50 [28]?
The GI50 was > 100 µM (inactive).

What about the GI50 [29] of the same compound?
The GI50 was > 100 µM (inactive).

And the GI50 [30]?
The GI50 was > 100 µM (inactive).

What about the GI50 [31] of the same compound?
Its GI50 is 91.4 µM (inactive).

What about the GI50 [32] of the same compound?
The GI50 was 55.8 µM (inactive).

What about the GI50 [33] of the same compound?
Its GI50 is > 100 µM (inactive).

And the GI50 [34]?
The GI50 was 83.2 µM (inactive).

And the GI50 [35]?
The GI50 was > 100 µM (inactive).

And the GI50 [36]?
Its GI50 is 59.6 µM (inactive).

What about the GI50 [37] of the same compound?
The GI50 was 78 µM (inactive).

What about the GI50 [38] of the same compound?
Its GI50 is 57.4 µM (inactive).

What about the GI50 [39] of the same compound?
The GI50 was > 100 µM (inactive).

What about the GI50 [40] of the same compound?
Its GI50 is > 100 µM (inactive).

And the GI50 [41]?
The GI50 was > 100 µM (inactive).

What about the GI50 [42] of the same compound?
Its GI50 is 40.5 µM (inactive).

What about the GI50 [43] of the same compound?
Its GI50 is > 100 µM (inactive).

What about the GI50 [44] of the same compound?
The GI50 was 86.5 µM (inactive).

What about the GI50 [45] of the same compound?
The GI50 was 27.7 µM (inactive).

And the GI50 [46]?
Its GI50 is 32.5 µM (inactive).

And the GI50 [47]?
Its GI50 is 44.3 µM (inactive).

And the GI50 [48]?
Its GI50 is > 100 µM (inactive).

And the GI50 [49]?
Its GI50 is > 100 µM (inactive).

What about the GI50 [50] of the same compound?
The GI50 was 48.6 µM (inactive).

What about the GI50 [51] of the same compound?
The GI50 was > 100 µM (inactive).

What about the GI50 [52] of the same compound?
The GI50 was 51.1 µM (inactive).

And the GI50 [53]?
Its GI50 is > 100 µM (inactive).

And the GI50 [54]?
Its GI50 is 9.44 µM (inactive).

How did the GI50 [1] turn out when `C=CCNC(=S)N1c2ccccc2NC(=O)CC1C` (centres undefined) was run?
The GI50 was > 100 µM (inactive).

What about the GI50 [3] of the same compound?
The GI50 was > 100 µM (inactive).

What about the GI50 [4] of the same compound?
Its GI50 is > 100 µM (inactive).

And the GI50 [5]?
The GI50 was > 100 µM (inactive).

What about the GI50 [6] of the same compound?
Its GI50 is > 100 µM (inactive).

And the GI50 [8]?
Its GI50 is > 100 µM (inactive).

What about the GI50 [9] of the same compound?
The GI50 was > 100 µM (inactive).

What about the GI50 [10] of the same compound?
The GI50 was > 100 µM (inactive).

And the GI50 [12]?
Its GI50 is > 100 µM (inactive).

And the GI50 [13]?
Its GI50 is > 100 µM.

And the GI50 [14]?
The GI50 was > 100 µM (inactive).

What about the GI50 [15] of the same compound?
Its GI50 is > 100 µM (inactive).

What about the GI50 [16] of the same compound?
Its GI50 is > 100 µM (inactive).

What about the GI50 [17] of the same compound?
The GI50 was > 100 µM (inactive).

And the GI50 [18]?
Its GI50 is > 100 µM (inactive).

And the GI50 [19]?
Its GI50 is > 100 µM (inactive).

And the GI50 [20]?
Its GI50 is > 100 µM (inactive).

What about the GI50 [21] of the same compound?
Its GI50 is > 100 µM (inactive).

And the GI50 [22]?
The GI50 was > 100 µM (inactive).

And the GI50 [23]?
Its GI50 is > 100 µM (inactive).

What about the GI50 [24] of the same compound?
The GI50 was > 100 µM (inactive).

And the GI50 [25]?
Its GI50 is > 100 µM (inactive).

What about the GI50 [26] of the same compound?
Its GI50 is > 100 µM (inactive).

And the GI50 [27]?
The GI50 was > 100 µM (inactive).

And the GI50 [28]?
Its GI50 is > 100 µM (inactive).

What about the GI50 [29] of the same compound?
The GI50 was > 100 µM (inactive).

What about the GI50 [30] of the same compound?
The GI50 was > 100 µM (inactive).

And the GI50 [31]?
Its GI50 is > 100 µM (inactive).

What about the GI50 [32] of the same compound?
The GI50 was > 100 µM (inactive).

What about the GI50 [33] of the same compound?
Its GI50 is > 100 µM (inactive).

And the GI50 [34]?
The GI50 was > 100 µM (inactive).

And the GI50 [35]?
The GI50 was > 100 µM (inactive).

And the GI50 [36]?
The GI50 was > 100 µM (inactive).

What about the GI50 [55] of the same compound?
The GI50 was > 100 µM (inactive).

And the GI50 [37]?
The GI50 was > 100 µM (inactive).

What about the GI50 [38] of the same compound?
The GI50 was > 100 µM (inactive).

And the GI50 [39]?
The GI50 was > 100 µM (inactive).

What about the GI50 [40] of the same compound?
Its GI50 is > 100 µM (inactive).

What about the GI50 [41] of the same compound?
Its GI50 is > 100 µM (inactive).

What about the GI50 [43] of the same compound?
Its GI50 is > 100 µM (inactive).

What about the GI50 [44] of the same compound?
Its GI50 is > 100 µM (inactive).

What about the GI50 [45] of the same compound?
Its GI50 is 54.6 µM (inactive).

And the GI50 [46]?
The GI50 was > 100 µM (inactive).

What about the GI50 [47] of the same compound?
The GI50 was > 100 µM (inactive).

What about the GI50 [48] of the same compound?
Its GI50 is > 100 µM (inactive).

What about the GI50 [49] of the same compound?
The GI50 was > 100 µM (inactive).

What about the GI50 [50] of the same compound?
The GI50 was > 100 µM (inactive).

And the GI50 [52]?
The GI50 was > 100 µM (inactive).

What about the GI50 [53] of the same compound?
The GI50 was > 100 µM (inactive).

And the GI50 [54]?
Its GI50 is > 100 µM (inactive).
